Experimental data as given in article PMC6204753, “Non-native autoinducer analogs capable of modulating the SdiA quorum sensing receptor in Salmonella enterica serovar Typhimurium” (Beilstein Journal of Organic Chemistry, 2018).
Entries after “also recorded” stand apart in the source; their conditions may differ. Marks after values point to notes of the source that are not given here.

How the values were obtained:
Format in all cases: cell-based
SdiA [1] = target: T1, SdiA (Salmonella enterica subsp. enterica serovar Typhimurium, UniProt O66040); assay: S. Typhimurium-pJNS25 SdiA reporter, competitive antagonism against 10 nM L-OOHL; settings: for inhibition at 1 µM: read-out: Antagonism 1 μM Inhibition (%); for inhibition at 100 µM: read-out: Antagonism 100 μM Inhibition (%); for Emax: 100% minus lowest % activity in presence of 10 nM L-OOHL (2); for IC50: against 10 nM L-OOHL (EC90)
T1 sequence (O66040 entry or part of it): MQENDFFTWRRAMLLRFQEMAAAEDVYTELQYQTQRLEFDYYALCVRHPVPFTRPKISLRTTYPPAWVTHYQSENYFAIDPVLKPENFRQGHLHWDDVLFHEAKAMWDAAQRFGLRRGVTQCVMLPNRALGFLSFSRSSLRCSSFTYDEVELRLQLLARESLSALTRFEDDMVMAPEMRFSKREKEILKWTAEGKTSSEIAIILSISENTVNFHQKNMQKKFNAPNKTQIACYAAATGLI
From the text: (§1) Biological assays for SdiA activity. Cell-based reporter strains that rely on detecting the transcriptional activity of LuxR-type receptors are commonly used to assess the activity of exogenous ligands. We used the S. Typhimurium-pJNS25 reporter strain constructed by Smith and Ahmer and also used by Janssens et al. to examine SdiA activity. This strain naturally produces SdiA and contains a reporter plasmid with the promoter region for srgE fused to the luxABCDE operon of V. fischeri (see Experimental section for details of all strains and plasmids). SdiA activity is thus reported by the production of luciferase and resulting bioluminescence. We also prepared an SdiA reporter in E. coli (JLD271-pJN105SE-pSC11SE) to examine S. Typhimurium SdiA activity in an alternate background and with a different reporter gene output. […] This reporter construct uses an arabinose inducible promoter to produce S. Typhimurium SdiA and the promoter region for srgE fused to lacZ to report SdiA activity. SdiA activity is then measured using standard β-galactosidase assays. In both reporter strains, signal was normalized to the difference between the positive control (10 μM OOHL) and the negative control (1% DMSO; no compound).
(§2) Salmonella SdiA reporter assay. S. Typhimurium-pJNS25 was grown 16–18 h overnight in LB, diluted 1:100 in fresh LB medium, and then incubated for 6 h at 37 °C with shaking at 200 rpm in the presence of compounds (1% DMSO). […] All compounds were screened at 100 μM and 1 μM in triplicate in agonism and antagonism assays. […] Dose–response analyses were performed by preparing dilutions of compounds in DMSO and testing each concentration in the agonism or antagonism assays. Competition dose–response assays (data in Figure 5) were performed in the same manner as the antagonism assays, except instead of OOHL being added to the subculture, the antagonist being tested was added. Non-linear regression curve fits were generated using GraphPad Prism software (version 6) using variable slope (four parameter) dose–response analysis.

SdiA [2] = target: T1, SdiA; assay: S. Typhimurium-pJNS25 SdiA reporter, agonism (luminescence); settings: for EC50: agonism dose–response, read-out: EC50; for Emax: read-out: activation (%); for fold increase: potency of thiolactone over corresponding lactone (EC50 ratio)
From the text: as §1, §2

S. Typhimurium SdiA = S. Typhimurium SdiA (Salmonella enterica subsp. enterica serovar Typhimurium, UniProt O66040); assay: E. coli JLD271-pJN105SE-pSC11SE SdiA reporter, antagonism (β-galactosidase); settings: E. coli reporter; against OOHL at its EC50 (1.5 nM); NA = not active; 0.0015 µM
Chain of S. Typhimurium SdiA (O66040 entry or part of it): as above
From the text: Biological assays for SdiA activity. Cell-based reporter strains that rely on detecting the transcriptional activity of LuxR-type receptors are commonly used to assess the activity of exogenous ligands. We used the S. Typhimurium-pJNS25 reporter strain constructed by Smith and Ahmer and also used by Janssens et al. to examine SdiA activity. This strain naturally produces SdiA and contains a reporter plasmid with the promoter region for srgE fused to the luxABCDE operon of V. fischeri (see Experimental section for details of all strains and plasmids). SdiA activity is thus reported by the production of luciferase and resulting bioluminescence. We also prepared an SdiA reporter in E. coli (JLD271-pJN105SE-pSC11SE) to examine S. Typhimurium SdiA activity in an alternate background and with a different reporter gene output. E. coli JLD271 is the sdiA mutant of K-12 E. coli. This reporter construct uses an arabinose inducible promoter to produce S. Typhimurium SdiA and the promoter region for srgE fused to lacZ to report SdiA activity. SdiA activity is then measured using standard β-galactosidase assays. In both reporter strains, signal was normalized to the difference between the positive control (10 μM OOHL) and the negative control (1% DMSO; no compound).
E. coli SdiA reporter assay. The β-galactosidase assay using the E. coli SdiA reporter was performed as reported previously, with minor modifications. The reporter strain was grown 16–18 h overnight in LB, diluted 1:10 in fresh LB medium, and incubated at 37 °C with shaking at 200 rpm until it reached an OD600 of 0.25. Expression of SdiA was induced by the addition of 4 mg/mL arabinose, and the culture was incubated in the presence of compounds (1% DMSO) for 4 h at 37 °C with shaking at 200 rpm. […] A 50 μL aliquot of culture from each well was lysed in 200 μL of Z-buffer and 8 μL of chloroform, and a 100 μL aliquot of this lysate was incubated with 25 μL of 4 mg/mL ONPG for 20 min at 30 °C before reading absorption at 420 nm and 550 nm using a Biotek Synergy 2 plate reader. Non-linear regression curve fits were generated using GraphPad Prism software (version 6) using variable slope (four parameter) dose–response analysis.

[3] = 1 μM compound, average ± STD, change in activity from 10 nM 2 (OOHL)
[4] = 100 μM compound, average ± STD, change in activity from 10 nM 2 (OOHL)
[5] = maximal inhibition, read-out: inhibition (%)
[6] = maximal activation of the antagonists (partial agonism), Table 3
[7] = maximal activity (efficacy) from agonism dose–response, 10 μM OOHL = 100%, DMSO = 0%

Row | Compound | inhibition at 1 µM (SdiA [1]; [3]) [%] | inhibition at 100 µM (SdiA [1]; [4]) [%] | EC50 (SdiA [2]) [nM] | Emax (SdiA [1]; [5]) [%] | Emax (SdiA [2]; [6]) [%] | Emax (SdiA [2]; [7]) [%] | also measured
1 | O=C(Cc1cccc([N+](=O)[O-])c1)N[C@H]1CCOC1=O [C14] | 0 | -17 ± 9 | 28.3 | – | – | – | –
2 | O=C(Cc1ccc(-c2ccccc2)cc1)N[C@H]1CCOC1=O [C18] | 11 ± 3 | 52 ± 10 | – | 40 | 48 | – | –
3 | COc1ccc(CC(=O)N[C@H]2CCOC2=O)cc1 [C24] | – | – | 252 | – | – | – | Antagonism 1 μM Inhibition (%) (SdiA [1]; [3]): -11 ± 3%; Antagonism 100 μM Inhibition (%) (SdiA [1]; [4]): 4 ± 16%
4 | Cc1cccc(CC(=O)N[C@H]2CCOC2=O)c1 [E1] | -6 ± 7 | -14 ± 13 | 66.4 | – | – | 99 | –
5 | N#Cc1cccc(CC(=O)N[C@H]2CCOC2=O)c1 [E5] | 18 ± 8 | -8 ± 4 | 62.2 | – | – | 73 | –
6 | CSc1ccc(CC(=O)N[C@H]2CCOC2=O)cc1 [E6] | 25 ± 16 | 44 ± 13 | – | 49 | 74 | – | –
7 | CSc1cccc(CC(=O)N[C@H]2CCOC2=O)c1 [E7] | 20 ± 14 | 12 ± 13 | 26 | – | – | 91 | –
8 | Cc1ccc(OCC(=O)N[C@H]2CCOC2=O)cc1 [E15] | -3 ± 5 | -17 ± 7 | 33 | – | – | 98 | –
9 | Cc1cccc(OCC(=O)N[C@H]2CCOC2=O)c1 [E16] | -2 ± 8 | -4 ± 5 | 43.3 | – | – | 100 | –
10 | O=C(COc1ccc(I)cc1)N[C@H]1CCOC1=O [E22] | -5 ± 11 | -15 ± 8 | 10.4 | – | – | 108 | –
11 | O=C(CCc1cccc(I)c1)N[C@H]1CCOC1=O [E33] | 20 ± 6 | 38 ± 10 | – | 19 | 67 | – | IC50 (SdiA [1]): 9640 nM
12 | CSc1ccc(CCC(=O)N[C@H]2CCOC2=O)cc1 [E34] | 21 ± 15 | 39 ± 8 | – | 30 | 66 | – | –
13 | CCCCCC(=O)CC(=O)N[C@H]1CCSC1=O [F2] | -19 ± 12 | -19 ± 15 | 0.7 | – | – | 119 | fold increase (SdiA [2]): 1.47^c
14 | CCCCCCCC(=O)N[C@H]1CCSC1=O [F5] | 3 ± 6 | 0 | 2.28 | – | – | 79 | fold increase (SdiA [2]): 8.12
15 | CCCC(=O)N[C@H]1CCSC1=O [F8] | -5 ± 10 | -23 ± 11 | 62.8 | – | – | 91 | fold increase (SdiA [2]): 9.20
16 | O=C(Cc1cccc([N+](=O)[O-])c1)N[C@H]1CCSC1=O [F11] | -11 ± 7 | -16 ± 13 | 2.47 | – | – | 97 | fold increase (SdiA [2]): 11.5
17 | COc1ccc(CC(=O)N[C@H]2CCSC2=O)cc1 [F12] | -13 ± 10 | -21 ± 8 | 38.8 | – | – | 84 | fold increase (SdiA [2]): 6.49
18 | O=C(Cc1ccc(-c2ccccc2)cc1)N[C@H]1CCSC1=O [F13] | 23 ± 4 | 46 ± 15 | – | 51 | 59 | – | IC50 (SdiA [1]): 2350 nM
19 | CCOC(=O)CNC(=O)Cc1ccc(Br)cc1 [F39] | 27 ± 9 | 53 ± 11 | – | 55 | 50 | – | –
20 | CCOC(=O)CNC(=O)Cc1cccc([N+](=O)[O-])c1 [F40] | 21 ± 8 | 43 ± 4 | – | 33 | 56 | – | IC50 (SdiA [1]): 27800 nM
21 | CCOC(=O)CNC(=O)Cc1ccc(OC)cc1 [F47] | 3 ± 14 | 36 ± 10 | – | 42 | 61 | – | –
22 | CCCCCCCCCCOc1ccc(C(=O)N[C@H]2CCOC2=O)cc1 [R7] | 8 ± 6 | 43 ± 15 | – | 51 | 6 | – | IC50 (SdiA [1]): 3100 nM
23 | CCCCCCCCCCCCOc1ccc(C(=O)N[C@H]2CCOC2=O)cc1 [R9] | 22 ± 10 | 42 ± 13 | – | 63 | 6 | – | –
24 | O=C(COc1ccc(I)cc1)N[C@H]1CCSC1=O [RN22] | -4 ± 9 | 3 ± 9 | 6.08 | – | – | 93 | fold increase (SdiA [2]): 1.71^c
25 | CCCCCCC(CCCC)C(=O)N[C@H]1CCOC1=O (stereo partly drawn) [S2] | 48 ± 3 | 2 ± 11 | – | 32 | 63 | – | –
26 | O=C(CC1CCCCC1)N[C@H]1CCOC1=O [S7] | 7 ± 14 | 1 ± 7 | 106 | – | – | 89 | –
27 | O=C(CCCOc1cccc(Br)c1)N[C@H]1CCSC1=O [compound 16, reference compound] | 8 ± 14 | 84 ± 6 | – | – | – | – | IC50 (SdiA [1]): 45000 nM; Emax (SdiA [1]; read-out: inhibition (%), maximal inhibition): 89%; inhibition (%) (S. Typhimurium SdiA): failed to display antagonistic activity; also recorded: did not display any activity; activity in the SdiA reporter assay (in words) (SdiA [2]; S. Typhimurium reporter): multimodal, or non-monotonic; Emax (SdiA [2]): 48%
28 | O=C(Nc1ccccc1NC(=O)c1cccc(Cl)c1)c1cccc(Cl)c1 [compound 20, reference compound] | 35 ± 18 | 39 ± 17 | – | 53 | 47 | – | –
